Here are results for 16 compounds from publication PMC12441774, “Proteolytic stabilization of a spider venom peptide results in an orally active bioinsecticide” (Pest Management Science, 2025).

For one series, the system named is Helicoverpa zea. Put plainly: Insecticidal activity by injection into fourth instar larvae. The class given is in vivo. As to conditions: fourth instar larvae, 1 μL into penultimate proleg, mortality 24 h after injection, eight larvae per treatment, at least triplicate. On the procedure:
Helicoverpa zea (Boddie, 1850) larvae were reared from eggs (Benzon, Carlisle, PA) to fourth instar on general purpose lepidopteran diet (F9772, Frontier Agricultural Sciences, Newark, DE). Pre‐weighed larvae immobilized on ice were injected into their penultimate proleg as described for M. domestica with 1 μL solution and eight larvae per treatment in at least triplicate. After injection, larvae were placed in a well of a 32‐well tray filled with 5 mL lepidopteran diet. The trays were then placed in an incubator at 28° C with 16:8 h light: dark cycle and evaluated 24 h after injection for mortality.
(§1) To compare the potency of Ta1b, we also injected the following active ingredients into M. domestica and H. zea: GS‐ω/κ (Spear, Vestaron), spinosad (Monterey Garden Insect Spray, Monterey), thiamethoxam (Optigard® Flex, Syngenta), and chlorantraniliprole (ALTACOR®, FMC).

For another series, the system named is Musca domestica. Description: Insecticidal activity by injection into adult house flies. The following applies: adult house flies 12–18 mg, 0.5 μL into dorsal thorax, mortality 24 h post‐injection, 10 flies per treatment, at least triplicate, four‐parameter sigmoidal fit. The class given is in vivo. On the procedure:
Adult house flies (Musca domestica L.) were immobilized with CO2 gas and those with an average weight of 12–18 mg were selected for injection. Purified solutions of Ta1b and variants were diluted in water and injected into the dorsal thorax with a 1‐cc syringe and 30‐gauge needle using a hand microapplicator (Burkard, Rickmansworth, England). Each adult was injected with 0.5 μL of solution with 10 flies per treatment in at least triplicate. Water was used as a negative control. Flies were placed into a container with moist filter paper and scored for mortality 24 h post‐injection. Ten non‐injected flies were placed in a container to assess CO2 mortality. Response curves were fitted with a four‐parameter sigmoidal function (GraphPad Prism, Boston, MA) to determine LD50 values.
as §1

The subject of another series is H. zea neonates. Description: Insecticidal activity by foliar spray (lettuce leaf disk feeding). Format: in vivo, Helicoverpa zea. The method, then:
Organic romaine lettuce was cut into 30‐mm diameter disks and sterilized with a 140‐ppm bleach solution followed by a triple rinse in water. The lettuce disks were then sprayed on either side using a Potter Tower Sprayer (Burkard, Rickmansworth, England) with insecticidal solutions, allowing them to dry between sprays. Once fully sprayed and dried, disks were placed into an arena, which was a 32‐well rearing tray containing 5 mL of 1% w/v agar. One leaf disk was placed in each well and a single neonate H. zea was applied to each of the 12 leaf discs per treatment with four experimental replicates per treatment. The trays were then placed in a 28° C incubator with a 16:8 h light: dark cycle. Mortality was evaluated 4 days after application.

Series [1] is described as follows: Gut enzyme digestion, M. sexta gut extract. The class given is in vitro ADME, Manduca sexta. The following applies: for Fold stability improvement over Ta1b: gut extract stability testing, limit of testing 50‐fold; for half-life: M. sexta fifth instar gut extract diluted 10× in 30 mM Tris–HCl pH 8.8, 0.5–1 mg mL^−1 peptide, HPLC, single exponential decay fit, read-out: Degradation half life, Gut extract; for Degradation half time ratio to Ta1b, Gut extract: ratio of half lives in M. sexta gut extract. The method, then:
(§2) Larvae of H. zea, Spodoptera frugiperda Smith and Abbot, 1797, and Trichoplusia ni Hubner, 1802 were purchased from Benzon Research and reared to fifth instar on general purpose lepidopteran diet. Manduca sexta L. were purchased from Carolina Biological Supply (Burlington, NC) and reared to fifth instar on the supplied diet. Larvae were anesthetized on ice for 30 min, pinned on a dissection plate, and opened laterally with microdissection scissors. The foregut, midgut and hindgut were excised and washed using sterile water to remove any excess hemolymph and then transferred into a chilled 2‐mL microcentrifuge tube. The extracts were spun in a microcentrifuge at 10000 g to pellet the solids. The liquid fractions were carefully removed, sterile filtered, and stored at −80°C for future use.
(§3) For gut enzyme digestion studies, gut extract was diluted 10× with the dilution buffer (30 mM Tris–HCl, pH 8.8) and 0.5–1 mg mL^−1 of Ta1b. Samples were taken from the digestion mixture at defined timepoints and mixed with a 1:6 ratio of stop buffer (Tris–HCl pH 1–2) to halt further digest of the peptide. Samples were sterile filtered and analyzed by HPLC to determine peptide integrity and concentration.

Series [2] in a line: Gut enzyme digestion, S. frugiperda gut extract. Format: in vitro ADME, Spodoptera frugiperda. The following applies: extract diluted ten-fold, single exponential decay fit, HPLC. On the procedure: as §2, §3
Series [3] is described as follows: Gut enzyme digestion, stated jointly for three lepidopteran gut extracts. As to conditions: 10‐fold diluted gut extract, single exponential decay, followed up to 21 h. Format: in vitro ADME, H. zea, S. frugiperda, T. ni. The method, then: as §2, §3
A short description of series [4]: Gut enzyme digestion, H. zea gut extract. The class given is in vitro ADME, Helicoverpa zea. As to conditions: extract diluted ten-fold, single exponential decay fit, HPLC. The method, then:
as §2, §3

Series [5] in a line: Gut enzyme digestion, T. ni gut extract. Format: in vitro ADME, Trichoplusia ni. As to conditions: extract diluted ten-fold, single exponential decay fit, HPLC. The method, then:
as §2, §3

The next series concerns Pieris brassicae. Put plainly: Field trial on cabbage caterpillar on cabbage. The class given is in vivo. As to conditions: spinosad (Laser, 96 g product ha^−1) or Btk alone; two applications 7 days apart; four replicate plots. The method, then: A dose–response of U1‐AGTX‐Ta1b‐QA (Ta1b‐QA) combined with Bacillus thuringiensis subsp. kurstaki (Btk; DiPel DF®, Valent) was performed by Agricola 2000 in a randomized complete block design (RCBD) on cabbage caterpillar (Pieris brassicae L.) on cabbage in Palagiano, Italy with four replicate plots of 1 × 15 m in open‐field containing 25 plants each. Treatments included an untreated check, three rates (22, 34, 45 g AI ha^−1) of an 8.5% w/w spray‐dried sample of Ta1b‐QA together with Btk (DiPel DF®, Valent, 0.5 kg product ha^−1), and the reference standard spinosad (Laser®, Corteva, 96 g product ha^−1). Treatments were applied two times, 7 days apart, with a backpack CO2 sprayer in a spray volume of 800 L ha^−1. […] Data were analyzed by one‐way ANOVA followed by a Tukey HSD LSM test with significance set at P < 0.05 (GraphPad Prism).

The nature of series [6]: Protease stability, commercial trypsin digestion. The following applies: bovine trypsin 1 mg mL^−1 in 50 mM Tris–HCl pH 8.8, 100 mM NaCl; 5 μL added to 200 μL of 10.7 mg mL^−1 peptide; room temperature; HPLC; read-out: Degradation half life, Trypsin. Format: in vitro ADME, bovine. On the procedure: (§4) For commercial enzyme digestion studies, bovine trypsin (Sigma‐Aldrich, St. Louis, MO) was prepared at a concentration of 1 mg mL^−1 in 50 mM Tris–HCl pH 8.8, 100 mM NaCl. Bovine chymotrypsin (Sigma‐Aldrich) was prepared at a concentration of 1 mg ml^−1 in 50 mM MES pH 6.0, 100 mM NaCl. For each digestion condition, 5 μL of trypsin or chymotrypsin solution were added to 200 μL of 10.7 mg mL^−1 peptide and incubated at room temperature. Samples were taken at defined timepoints, sterile filtered, and analyzed immediately by HPLC.

The next series deals with T1, bovine trypsin (Bos taurus, UniProt P00760).
T1 construct: purchased Sigma-Aldrich
T1 sequence (P00760 24-246): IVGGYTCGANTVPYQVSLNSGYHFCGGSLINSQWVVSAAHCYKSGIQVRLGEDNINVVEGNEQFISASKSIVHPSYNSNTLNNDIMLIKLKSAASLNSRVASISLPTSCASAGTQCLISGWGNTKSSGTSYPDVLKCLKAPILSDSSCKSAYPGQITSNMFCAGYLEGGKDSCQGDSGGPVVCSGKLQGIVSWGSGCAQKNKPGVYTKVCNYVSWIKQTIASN
Description: Protease stability, commercial trypsin digestion. The following applies: for Degradation half time ratio to Ta1b, Trypsin: ratio of half lives with bovine trypsin. Format: in vitro ADME. On the procedure:
as §4

Bridges are numbered along the chain shown (N, C = ends). Where no end group is shown, it is not given here.

In the case of “GSQYCVPVDQPCSLNTQPCCDDATCTQERNENGHTVYYCRA (disulfide 5-20, 12-25, 19-39) [GS‐ω/κ, reference compound]”, in the series with Helicoverpa zea, the “Insecticidal LD50, injection, H. zea (95% CI)” value is 5.9 (4.9–6.9) nmol g^−1. Besides, the “Insecticidal LD50, injection, M. domestica (95% CI)” value in the series with Musca domestica is 0.19 (0.17–0.21) nmol g^−1. Also, the “Day 4 mortality of H. zea on treated lettuce leaves, peptide alone” value in the series on H. zea neonates (100 μg cm^−2, neonates, compared to untreated) is “significant activity on its own”. Moreover, the “Day 4 mortality of H. zea on treated lettuce leaves, peptide in combination with Btk” value in the series on H. zea neonates (100 μg cm^−2 peptide with sublethal Btk 0.17 μg cm^−2, neonates) is “activity is increased”. Also, the “Degradation when incubated with gut extract (HPLC)” value in series [1] (M. sexta gut extract, HPLC peak) is “did not show any degradation”.
“H-ICRAQMTNKEFTYKSNVCNNCGDQVAACEAECFRNDVYAACHEAQKG-OH (disulfide 2-32, 18-28, 21-41)” came in with a Reduction in melting temperature vs Ta1b-QA of 14.2 °C.
Take “EPDEICRARMPNKEFTYKSNVCNNCGDQVAACEAECFRNDVYTACHEAQKG (disulfide 6-36, 22-32, 25-45) [Mutant T11P]”: the “Fold stability improvement over Ta1b” value in series [1] is recorded as above 50.
On the same count and under the same terms, the value for “EPDEICRNRMTNKEFTYKSNVCNNCGDQVAACEAECFRNDVYTACHEAQKG (disulfide 6-36, 22-32, 25-45) [Mutant A8N]” was 1.8.
Regarding `CNC(=O)c1cc(Cl)cc(C)c1NC(=O)c1cc(Br)nn1-c1ncccc1Cl` [Chlorantraniliprole, chlorantraniliprole], the “Insecticidal LD50, injection, H. zea (95% CI)” value in the series with Helicoverpa zea is listed as 0.22 (0.15–0.37) nmol g^−1. Further, the “Insecticidal LD50, injection, M. domestica (95% CI)” value in the series with Musca domestica was “no activity”.
With “EPDEICRAQMTNKEFTYKSNVCNNCGDQVAACEAECFRNDVYTACHEAQKG (disulfide 6-36, 22-32, 25-45) [Mutant R9Q]”, the “Degradation half-life in S. frugiperda gut extract” value in series [2] is recorded as “could not be fit to an exponential decay”. Moreover, in series [3], the “Degradation half‐lives in gut extracts from H. zea, S. frugiperda, and T. ni” value was “too little degradation to calculate half‐lives even after 21 h”. Also, the “Fold stability improvement over Ta1b” value in series [1] is listed as above 50. Also, in series [4], the “Degradation half-life in H. zea gut extract” value was “could not be fit to an exponential decay”. Also, the “Degradation half-life in T. ni gut extract” value in series [5] is recorded as “could not be fit to an exponential decay”.
spinosad: in the series with Pieris brassicae, the “Mean % control of larvae relative to the untreated check, comparators” value was determined as 57.8%. The “Insecticidal LD50, injection, H. zea (95% CI)” value with Helicoverpa zea is listed as 0.20 (0.14–0.31) nmol g^−1. The “Insecticidal LD50, injection, M. domestica (95% CI)” value in the series on Musca domestica is listed as 1.5 (0.9–2.4) nmol g^−1.
Regarding “EPDEICAARMTNKEFTYKSNVCNNCGDQVAACEAECFRNDVYTACHEAQKG (disulfide 6-36, 22-32, 25-45) [Mutant R7A]”, the half-life – broadly, the time needed for the level to fall by half in the phase considered – at 10.4 mg mL^-1 in [6] was 2.2 h. Further, at bovine trypsin, the “Degradation half time ratio to Ta1b, Trypsin” value is reported as 0.5.
On to `CN1COCN(Cc2cnc(Cl)s2)/C1=N\[N+](=O)[O-]` [Thiamethoxam, thiamethoxam], for which the “Insecticidal LD50, injection, H. zea (95% CI)” value with Helicoverpa zea is listed as 31.9 (20.2–52.1) nmol g^−1. Moreover, the “Insecticidal LD50, injection, M. domestica (95% CI)” value with Musca domestica was 23.2 (18.1–29.6) nmol g^−1.
“EPDEICRARMTNKEFTYKSNVCNNCGDQVAACEAECFANDVYTACHEAQKG (disulfide 6-36, 22-32, 25-45) [Mutant R38A]”: the half-life at 10.4 mg mL^-1 in series [6] came out at 31 h. Also, on bovine trypsin, the “Degradation half time ratio to Ta1b, Trypsin” value came to 6.5. Further, in series [1], the half-life was found to be 0.215 h and the “Degradation half time ratio to Ta1b, Gut extract” value was 9.2.
With “EPDEICRARMTNKEFTYASNVCNNCGDQVAACEAECFRNDVYTACHEAQKG (disulfide 6-36, 22-32, 25-45) [Mutant K18A]”, the half-life at 10.4 mg mL^-1 in [6] is 19.9 h. The “Degradation half time ratio to Ta1b, Trypsin” value on bovine trypsin came out at 4.1.
In the case of “EPDEICRAAMTNKEFTYKSNVCNNCGDQVAACEAECFRNDVYTACHEAQKG (disulfide 6-36, 22-32, 25-45) [Mutant R9A]”, the half-life at 10.4 mg mL^-1 in series [6] is above 100 h. The “Digestion by bovine trypsin (HPLC)” value on bovine trypsin (pH 8.8, room temperature, HPLC chromatogram) is reported as “complete abrogation of Ta1b digestion”. In addition, the “Degradation half time ratio to Ta1b, Trypsin” value on bovine trypsin is above 20. In [1], the half-life was determined as 4.97 h and the “Degradation half time ratio to Ta1b, Gut extract” value is given as 213.
Consider “EPDEICRAHMTNKEFTYKSNVCNNCGDQVAACEAECFRNDVYTACHEAQKG (disulfide 6-36, 22-32, 25-45) [Mutant R9H]”, for which the “Fold stability improvement over Ta1b” value in series [1] came out at 16.2.
In the case of “EPDEICRARMTNAEFTYKSNVCNNCGDQVAACEAECFRNDVYTACHEAQKG (disulfide 6-36, 22-32, 25-45) [Mutant K13A]”, the half-life at 10.4 mg mL^-1 in series [6] was 4.9 h. The “Degradation half time ratio to Ta1b, Trypsin” value at bovine trypsin was 1.0.
Consider “EPDEICRSRMTNKEFTYKSNVCNNCGDQVAACEAECFRNDVYTACHEAQKG (disulfide 6-36, 22-32, 25-45) [Mutant A8S]”, for which, in series [1], the “Fold stability improvement over Ta1b” value amounted to 12.1.
Same read-out and setting: the value for “EPDEICRANMTNKEFTYKSNVCNNCGDQVAACEAECFRNDVYTACHEAQKG (disulfide 6-36, 22-32, 25-45) [Mutant R9N]” was above 50.
